This note sets out measurements from US9586951B2 (FUJIFILM Corporation, priority 2013, dated 2017).

The target in assay [1] is T1, ATM (Homo sapiens, UniProt Q13315).
T1 construct: detecting phosphorylation of Chk2 in a human non-small cell lung cancer cell line NCI-H460 (ATCC company); host or cells: NCI-H460 human non-small cell lung cancer cells
The experiment in a line: ATM inhibition test (phosphorylation of Chk2 generated by ionizing radiation, AlphaScreen SureFire). The class given is cell-based. Conditions: phosphorylated Chk2 in NCI-H460 cells, ionizing radiation 8Gy, 1 hour after test compound treatment; read-out: ATM inhibitory activity. In outline: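 NCI-H460 cells, compound 1 h pre-treatment, 8Gy IR, further 1 h at 37° C in 5% CO2. Read-out: phospho-Chk2 via AlphaScreen SureFire. % inhibition relative to IR-induced signal window (irradiated vs non-irradiated drug-free wells).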
In general terms: Alpha assays give light when donor and acceptor beads are brought close together.

In assay [2] the test system is human non-small cell lung cancer cell line NCI-H460. The experiment in a line: Cell proliferation inhibition test by sensitivity-enhancing to ionizing radiation (Cell Titer Glo). Format: cell-based. Conditions: concentration in which SER became 2, NCI-H460 cells, ionizing radiation 2 Gy, cultured 120 hour. In outline:
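Cells seeded at 2×10^3 cells/mL in RPMI-1640 with 10% FBS; after 24 h, compound added (0.1% DMSO), and 30 min later half the plates irradiated at 2 Gy. After 120 hour at 37° C, viability by Cell Titer Glo luminescence; SER2 is the concentration giving SER of 2 by sigmoidal fit.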

T1 sequence (Q13315 whole entry): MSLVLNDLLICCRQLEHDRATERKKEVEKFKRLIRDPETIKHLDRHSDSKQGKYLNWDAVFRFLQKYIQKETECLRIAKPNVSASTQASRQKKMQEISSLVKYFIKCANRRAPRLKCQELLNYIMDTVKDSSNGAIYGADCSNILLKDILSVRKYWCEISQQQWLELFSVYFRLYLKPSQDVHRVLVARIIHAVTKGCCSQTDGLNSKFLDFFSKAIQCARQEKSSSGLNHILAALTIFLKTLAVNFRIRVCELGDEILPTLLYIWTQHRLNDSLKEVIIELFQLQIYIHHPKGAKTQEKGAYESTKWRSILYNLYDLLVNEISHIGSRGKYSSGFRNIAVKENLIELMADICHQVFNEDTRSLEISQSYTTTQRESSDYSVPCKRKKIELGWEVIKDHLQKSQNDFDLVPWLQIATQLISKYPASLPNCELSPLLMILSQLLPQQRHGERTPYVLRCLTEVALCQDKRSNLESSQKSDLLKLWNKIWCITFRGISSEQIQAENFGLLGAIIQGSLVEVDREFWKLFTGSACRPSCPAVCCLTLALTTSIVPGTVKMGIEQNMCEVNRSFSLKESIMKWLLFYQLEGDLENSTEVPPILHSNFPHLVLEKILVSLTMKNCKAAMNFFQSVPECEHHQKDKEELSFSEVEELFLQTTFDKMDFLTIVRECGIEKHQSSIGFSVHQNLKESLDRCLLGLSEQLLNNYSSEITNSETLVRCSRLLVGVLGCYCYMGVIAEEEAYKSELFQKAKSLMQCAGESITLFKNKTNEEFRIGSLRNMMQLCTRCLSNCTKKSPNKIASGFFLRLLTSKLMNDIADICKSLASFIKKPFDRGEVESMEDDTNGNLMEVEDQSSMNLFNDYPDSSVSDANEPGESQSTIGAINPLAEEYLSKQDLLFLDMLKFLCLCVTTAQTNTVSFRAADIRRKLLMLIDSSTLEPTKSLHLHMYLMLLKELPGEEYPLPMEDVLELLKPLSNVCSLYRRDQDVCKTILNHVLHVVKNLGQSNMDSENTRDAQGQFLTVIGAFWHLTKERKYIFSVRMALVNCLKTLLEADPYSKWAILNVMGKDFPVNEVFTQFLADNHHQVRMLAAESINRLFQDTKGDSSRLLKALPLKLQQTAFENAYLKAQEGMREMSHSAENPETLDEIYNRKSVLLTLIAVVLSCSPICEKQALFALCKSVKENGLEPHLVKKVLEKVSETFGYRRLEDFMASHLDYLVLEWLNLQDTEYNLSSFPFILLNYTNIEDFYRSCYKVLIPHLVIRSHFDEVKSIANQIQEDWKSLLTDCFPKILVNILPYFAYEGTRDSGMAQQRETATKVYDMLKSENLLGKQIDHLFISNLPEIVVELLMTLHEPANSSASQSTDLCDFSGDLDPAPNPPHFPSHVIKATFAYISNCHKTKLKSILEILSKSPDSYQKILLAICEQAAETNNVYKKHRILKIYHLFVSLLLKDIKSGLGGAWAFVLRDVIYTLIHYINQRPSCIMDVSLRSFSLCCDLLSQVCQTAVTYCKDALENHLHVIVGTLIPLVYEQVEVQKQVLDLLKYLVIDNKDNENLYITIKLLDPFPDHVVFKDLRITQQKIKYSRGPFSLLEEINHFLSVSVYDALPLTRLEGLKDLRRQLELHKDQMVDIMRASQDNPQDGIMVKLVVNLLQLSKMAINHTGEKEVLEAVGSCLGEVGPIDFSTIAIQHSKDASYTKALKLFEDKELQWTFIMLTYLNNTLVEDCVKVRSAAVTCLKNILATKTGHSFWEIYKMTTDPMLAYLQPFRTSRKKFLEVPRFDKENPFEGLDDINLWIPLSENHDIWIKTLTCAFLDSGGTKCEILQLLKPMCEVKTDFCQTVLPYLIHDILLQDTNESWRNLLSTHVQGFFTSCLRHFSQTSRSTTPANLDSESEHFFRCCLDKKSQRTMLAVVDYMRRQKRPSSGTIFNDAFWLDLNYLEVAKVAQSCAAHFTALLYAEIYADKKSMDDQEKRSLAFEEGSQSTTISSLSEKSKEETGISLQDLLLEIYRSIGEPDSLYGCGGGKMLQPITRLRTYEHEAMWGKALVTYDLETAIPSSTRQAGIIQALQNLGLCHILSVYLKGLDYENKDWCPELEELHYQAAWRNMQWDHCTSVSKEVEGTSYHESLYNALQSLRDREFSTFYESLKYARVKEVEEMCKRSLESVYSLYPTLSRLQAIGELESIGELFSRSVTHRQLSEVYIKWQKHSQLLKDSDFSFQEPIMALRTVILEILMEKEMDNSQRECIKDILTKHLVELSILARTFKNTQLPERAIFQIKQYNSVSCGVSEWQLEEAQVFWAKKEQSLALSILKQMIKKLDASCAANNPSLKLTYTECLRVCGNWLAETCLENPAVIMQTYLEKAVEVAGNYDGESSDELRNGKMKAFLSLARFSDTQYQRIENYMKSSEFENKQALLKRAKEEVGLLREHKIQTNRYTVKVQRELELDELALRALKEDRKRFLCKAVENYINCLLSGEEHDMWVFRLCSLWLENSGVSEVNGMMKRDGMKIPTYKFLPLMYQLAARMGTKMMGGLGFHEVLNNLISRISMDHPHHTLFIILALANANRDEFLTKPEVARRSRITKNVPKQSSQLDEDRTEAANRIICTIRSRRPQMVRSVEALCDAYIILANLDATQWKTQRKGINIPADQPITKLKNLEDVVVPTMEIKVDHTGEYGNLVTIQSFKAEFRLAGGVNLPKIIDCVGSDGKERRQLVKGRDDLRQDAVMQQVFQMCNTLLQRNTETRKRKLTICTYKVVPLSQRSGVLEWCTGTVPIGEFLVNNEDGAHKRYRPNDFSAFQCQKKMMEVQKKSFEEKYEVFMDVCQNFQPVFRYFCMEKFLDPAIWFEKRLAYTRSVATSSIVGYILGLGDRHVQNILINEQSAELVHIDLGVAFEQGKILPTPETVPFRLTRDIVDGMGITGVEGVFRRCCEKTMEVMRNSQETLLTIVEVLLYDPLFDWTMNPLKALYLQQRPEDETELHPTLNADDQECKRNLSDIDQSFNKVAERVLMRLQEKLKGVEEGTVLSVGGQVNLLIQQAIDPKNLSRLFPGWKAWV

Turning to `COc1cc(CNc2ccc3c(c2)Sc2cccc(-c4cc(N5CCOCC5)cc(=O)[nH]4)c2S3)ccn1` [Example 1-44-4, 6-(7-(((2-Methoxypyridin-4-yl)methyl)amino)thianthren-1-yl)-4-morpholino pyridin-2 (1H)-one], the IC50 in assay [1] is under 0.1 µM. In assay [2] (Homo sapiens, NCI-H460, 120 h), the SER2 (concentration at which the radiation sensitivity-enhancement ratio reaches 2) is 500 to 2000 nM.

On to `O=c1cc(N2CCOCC2)cc(-c2cccc3c2Oc2ccc(NCc4cncc(C5C=CCC5)c4)cc2C3)[nH]1` (stereo not drawn) [Example 2-2-60, 6-(7-(((5-(Cyclopent-2-en-1-yl)pyridin-3-yl)methyl)amino)-9H-xanthen-4-yl)-4-morpholino pyridin-2(1H)-one], for which, in assay [1], the IC50 was under 0.1 µM. Further, the SER2 (concentration at which the radiation sensitivity-enhancement ratio reaches 2) in assay [2] (Homo sapiens, NCI-H460, 120 h) lay in the range of 500 to 2000 nM.

For the compound `CN1CCN(CCNc2ccc3c(c2)Sc2cccc(-c4cc(N5CCOCC5)cc(=O)[nH]4)c2S3)CC1` [Example 1-10-9, 6-(7-((2-(4-Methylpiperazin-1-yl)ethyl)amino)thianthren-1-yl)-4-morpholino pyridin-2(1H)-one], the IC50 in assay [1] is under 0.1 µM. Further, the SER2 (concentration at which the radiation sensitivity-enhancement ratio reaches 2) in assay [2] (Homo sapiens, NCI-H460, 120 h) is 100 to 500 nM.

Regarding `O=c1cc(N2CCOCC2)cc(-c2cccc3c2Sc2ccc(NCc4cc(Cl)ccn4)cc2S3)[nH]1` [Example 1-12-3, 6-(7-(((4-Chloropyridin-2-yl)methyl)amino)thianthren-1-yl)-4-morpholino pyridin-2 (1H)-one], the IC50 in assay [1] was under 0.1 µM. In addition, the SER2 (concentration at which the radiation sensitivity-enhancement ratio reaches 2) in assay [2] (Homo sapiens, NCI-H460, 120 h) fell in the range of 100 to 500 nM.

As to `Cc1cnc(C(C)Nc2ccc3c(c2)Sc2cccc(-c4cc(N5CCOCC5)cc(=O)[nH]4)c2S3)cn1` (single isomer, unassigned) [Example 1-12-137-2, 6-(7-((1-(5-methylpyrazin-2-yl)ethyl)amino)thianthren-1-yl)-4-morpholinopyridin-2(1H)-one], the IC50 in assay [1] was under 0.1 µM. The SER2 (concentration at which the radiation sensitivity-enhancement ratio reaches 2) in assay [2] lay within 100 to 500 nM.

For `Cc1ccc(CNc2ccc3c(c2)Cc2cccc(-c4cc(N5CCOCC5)cc(=O)[nH]4)c2O3)nc1` [Example 2-2-41, 6-(7-(((5-Methylpyridin-2-yl)methyl)amino)-9H-xanthen-4-yl)-4-morpholino pyridin-2(1H)-one], in assay [1], the IC50 fell in the range of 0.1 to 0.5 µM. Also, the SER2 (concentration at which the radiation sensitivity-enhancement ratio reaches 2) in assay [2] (Homo sapiens, NCI-H460, 120 h) fell in the range of 100 to 500 nM.

As to `Cc1ccc(C(CCCN(C)C)Nc2ccc3c(c2)Sc2cccc(-c4cc(N5CCOCC5)cc(=O)[nH]4)c2S3)nc1` (single isomer, unassigned) [Example 1-51-3, 6-(7-((4-(Dimethylamino)-1-(5-methylpyridin-2-yl)butyl)amino)thianthren-1-yl)-4-morpholino pyridin-2(1H)-one], the IC50 in assay [1] was under 0.1 µM. Also, in assay [2] (Homo sapiens, NCI-H460, 120 h), the SER2 (concentration at which the radiation sensitivity-enhancement ratio reaches 2) was in the range of 100 to 500 nM.

Take `O=c1cc(N2CCOCC2)cc(-c2cccc3c2Oc2ccc(NCc4cncc(N5CCC5)c4)cc2C3)[nH]1` [Example 2-2-69, 6-(7-(((5-(Azetidin-1-yl)pyridin-3-yl)methyl)amino)-9H-xanthen-4-yl)-4-morpholino pyridin-2(1H)-one]: the IC50 in assay [1] was under 0.1 µM. The SER2 (concentration at which the radiation sensitivity-enhancement ratio reaches 2) in assay [2] (Homo sapiens, NCI-H460, 120 h) fell in the range of 500 to 2000 nM.

`O=c1cc(N2CCOCC2)cc(-c2cccc3c2Oc2ccc(NCc4cncc(-n5cccn5)c4)cc2S3)[nH]1` [Example 4-4-9, 6-(8-(((5-(1H-Pyrazol-1-yl)pyridin-3-yl)methyl)amino)phenoxathiin-4-yl)-4-morpholino pyridin-2(1H)-one]: the IC50 in assay [1] was under 0.1 µM. Moreover, the SER2 (concentration at which the radiation sensitivity-enhancement ratio reaches 2) in assay [2] (Homo sapiens, NCI-H460, 120 h) lay within 100 to 500 nM.

For `O=c1cc(N2CCOCC2)cc(-c2cccc3c2Oc2ccc(NCc4cccs4)cc2C3)[nH]1` [Example 2-13-6, 4-Morpholino-6-(7-((thiophen-2-ylmethyl)amino)-9H-xanthen-4-yl) pyridin-2(1H)-one], the IC50 in assay [1] is under 0.1 µM. Further, the SER2 (concentration at which the radiation sensitivity-enhancement ratio reaches 2) in assay [2] (Homo sapiens, NCI-H460, 120 h) lay within 500 to 2000 nM.

For the compound `Cc1cccc(C(CCN(C)C)Nc2ccc3c(c2)Sc2cccc(-c4cc(N5CCOCC5)cc(=O)[nH]4)c2S3)n1` (single isomer, unassigned) [Example 1-22-11-2, 6-(7-((3-(dimethylamino)-1-(6-methylpyridin-2-yl)propyl)amino)thianthren-1-yl)-4-morpholinopyridin-2(1H)-one], in assay [1], the IC50 is under 0.1 µM. The SER2 (concentration at which the radiation sensitivity-enhancement ratio reaches 2) in assay [2] is under 100 nM.

For the compound `Cc1ccnc(C(C)Nc2ccc3c(c2)Sc2cccc(-c4cc(N5CCOCC5)cc(=O)[nH]4)c2S3)n1` (stereo not drawn) [Example 1-12-69, 6-(7-((1-(4-Methylpyrimidin-2-yl)ethyl)amino)thianthren-1-yl)-4-morpholino pyridin-2(1H)-one], the IC50 in assay [1] was under 0.1 µM. Further, the SER2 (concentration at which the radiation sensitivity-enhancement ratio reaches 2) in assay [2] (Homo sapiens, NCI-H460, 120 h) was under 100 nM.

`O=c1cc(N2CCOCC2)cc(-c2cccc3c2Oc2ccc(NCc4cncc(C(F)(F)F)c4)cc2C3)[nH]1` [Example 2-13-4, 4-Morpholino-6-(7-(((5-(trifluoromethyl)pyridin-3-yl)methyl)amino)-9H-xanthen-4-yl)pyridin-2(1H)-one]: the IC50 in assay [1] was under 0.1 µM. Besides, the SER2 (concentration at which the radiation sensitivity-enhancement ratio reaches 2) in assay [2] (Homo sapiens, NCI-H460, 120 h) lay within 100 to 500 nM.

For the compound `Cc1cccc(C(CCN2CCOCC2)Nc2ccc3c(c2)Sc2cccc(-c4cc(N5CCOCC5)cc(=O)[nH]4)c2S3)n1` (stereo not drawn) [Example 1-34-4], the IC50 in assay [1] was under 0.1 µM. Further, in assay [2] (Homo sapiens, NCI-H460, 120 h), the SER2 (concentration at which the radiation sensitivity-enhancement ratio reaches 2) was under 100 nM.

In the case of `Cc1cnc(C(CCN(C)C)Nc2ccc3c(c2)Sc2cccc(-c4cc(N5CCOCC5)cc(=O)[nH]4)c2S3)cn1` (single isomer, unassigned) [Example 1-22-12-1, 6-(7-((3-(dimethylamino)-1-(5-methylpyrazin-2-yl)propyl)amino)thianthren-1-yl)-4-morpholinopyridin-2(1H)-one], the IC50 in assay [1] was under 0.1 µM. Also, the SER2 (concentration at which the radiation sensitivity-enhancement ratio reaches 2) in assay [2] (Homo sapiens, NCI-H460, 120 h) was 100 to 500 nM.

Take `Cc1cccc(C(C)Nc2ccc3c(c2)Sc2cccc(-c4cc(N5CCOCC5)cc(=O)[nH]4)c2S3)n1` (stereo not drawn) [Example 1-12-30, 6-(7-((1-(6-Methylpyridin-2-yl)ethyl)amino)thianthren-1-yl)-4-morpholino pyridin-2 (1H)-one]: in assay [1], the IC50 is under 0.1 µM. The SER2 (concentration at which the radiation sensitivity-enhancement ratio reaches 2) in assay [2] (Homo sapiens, NCI-H460, 120 h) was under 100 nM.

`Cc1cnc(C(C)Nc2ccc3c(c2)Cc2cccc(-c4cc(N5CCOCC5)cc(=O)[nH]4)c2O3)cn1` (stereo not drawn) [Example 2-14-24, 6-(7-((1-(5-Methylpyrazin-2-yl)ethyl)amino)-9H-xanthen-4-yl)-4-morpholino pyridin-2(1H)-one]: the IC50 in assay [1] is under 0.1 µM. Besides, in assay [2] (Homo sapiens, NCI-H460, 120 h), the SER2 (concentration at which the radiation sensitivity-enhancement ratio reaches 2) fell in the range of 100 to 500 nM.

As for `Cc1ccnc(C(C)Nc2ccc3c(c2)Sc2cccc(-c4cc(N5CCOCC5)cc(=O)[nH]4)c2S3)c1` (single isomer, unassigned) [Example 1-12-135-2, 6-(7-((1-(4-methylpyridin-2-yl)ethyl)amino)thianthren-1-yl)-4-morpholinopyridin-2(1H)-one], the IC50 in assay [1] was under 0.1 µM. The SER2 (concentration at which the radiation sensitivity-enhancement ratio reaches 2) in assay [2] fell in the range of 100 to 500 nM.

In the case of `CN1CCC(Nc2ccc3c(c2)Sc2cccc(-c4cc(N5CCOCC5)cc(=O)[nH]4)c2S3)CC1` [Example 1-44-5, 6-(7-((1-Methylpiperidin-4-yl)amino)thianthren-1-yl)-4-morpholino pyridin-2(1H)-one], the IC50 in assay [1] was under 0.1 µM. Moreover, in assay [2] (Homo sapiens, NCI-H460, 120 h), the SER2 (concentration at which the radiation sensitivity-enhancement ratio reaches 2) was 500 to 2000 nM.

Regarding `CN(C)c1ncc(CNc2ccc3c(c2)Sc2cccc(-c4cc(N5CCOCC5)cc(=O)[nH]4)c2S3)cn1` [Example 1-12-11, 6-(7-(((2-(Dimethylamino)pyrimidin-5-yl)methyl)amino)thianthren-1-yl)-4-morpholino pyridin-2(1H)-one], the IC50 in assay [1] was under 0.1 µM. Besides, the SER2 (concentration at which the radiation sensitivity-enhancement ratio reaches 2) in assay [2] (Homo sapiens, NCI-H460, 120 h) is 100 to 500 nM.

`COCCOCC(Nc1ccc2c(c1)Sc1cccc(-c3cc(N4CCOCC4)cc(=O)[nH]3)c1S2)c1ccc(C)cn1` (stereo not drawn) [Example 1-12-102, 6-(7-((2-(2-Methoxyethoxy)-1-(5-methylpyridin-2-yl)ethyl)amino)thianthren-1-yl)-4-morpholino pyridin-2(1H)-one]: in assay [1], the IC50 was under 0.1 µM. Further, in assay [2] (Homo sapiens, NCI-H460, 120 h), the SER2 (concentration at which the radiation sensitivity-enhancement ratio reaches 2) lay within 100 to 500 nM.

In the case of `COCC(CN1CC2CCC(C1)O2)Nc1ccc2c(c1)Sc1cccc(-c3cc(N4CCOCC4)cc(=O)[nH]3)c1S2` [Example 1-46-10, 6-(7-(((2S)-1-(8-Oxa-3-azabicyclo[3.2. l]octan-3-yl)-3-methoxypropan-2-yl)amino)thianthren-1-yl)-4-morpholino pyridin-2(1H)-one], the IC50 in assay [1] is under 0.1 µM. Moreover, the SER2 (concentration at which the radiation sensitivity-enhancement ratio reaches 2) in assay [2] (Homo sapiens, NCI-H460, 120 h) was 100 to 500 nM.

Turning to `Cc1ccnc(CNc2ccc3c(c2)Cc2ccc(F)c(-c4cc(N5CCOCC5)cc(=O)[nH]4)c2O3)c1` [Example 2-46-5, 6-(3-Fluoro-7-(((4-methylpyridin-2-yl)methyl)amino)-9H-xanthen-4-yl)-4-morpholinopyridin-2(1H)-one], the IC50 in assay [1] is under 0.1 µM. For the same compound, in assay [2] (Homo sapiens, NCI-H460, 120 h), the SER2 (concentration at which the radiation sensitivity-enhancement ratio reaches 2) lay within 100 to 500 nM.

Regarding `Cc1ccnc(C(CO)Nc2ccc3c(c2)Sc2cccc(-c4cc(N5CCOCC5)cc(=O)[nH]4)c2S3)c1` (stereo not drawn) [Example 1-12-65, 6-(7-((2-Hydroxy-1-(4-methylpyridin-2-yl)ethyl)amino)thianthren-1-yl)-4-morpholino pyridin-2(1H)-one], the IC50 in assay [1] is under 0.1 µM. Also, in assay [2] (Homo sapiens, NCI-H460, 120 h), the SER2 (concentration at which the radiation sensitivity-enhancement ratio reaches 2) fell in the range of 100 to 500 nM.
